Data published in patent publication US20150344540A1, “NOVEL GLP-1 RECEPTOR AGONISTS WITH CHOLESTEROL EFFLUX ACTIVITY” (NOVO NORDISK A/S, priority 2012, published 2015).
Where a SMILES comes first, the peptide text is derived from it. Where no end group is shown, it is not given here. [ ]: non-standard residue; d: D form. Aib = CC(C)(N)C(=O)O

Tested on: Mouse monocyte/macrophage cell line, RAW 264.7
Assay: Cholesterol efflux assay (3H-cholesterol, macrophage cell line)
Type: cell-based
Settings: RAW 264.7, 4 hrs incubation, 0.1% human serum albumin; for 4 h Cholesterol Efflux Emax: ABCA1-mediated efflux; for EC50: read-out: 4 h Cholesterol Efflux EC50, ABCA1-mediated efflux (CPT-cAMP induced minus non-induced)

Question: With `CC[C@H](C)[C@H](NC(=O)[C@H](Cc1ccccc1)NC(=O)[C@H](CCC(=O)O)NC(=O)[C@H](CCCCN)NC(=O)[C@@H](NC(=O)[C@H](C)NC(=O)[C@H](CCC(=O)O)NC(=O)CNC(=O)[C@H](CCC(=O)O)NC(=O)[C@H](CC(C)C)NC(=O)[C@H](Cc1ccc(O)cc1)NC(=O)[C@H](CO)NC(=O)[C@H](CO)NC(=O)[C@@H](NC(=O)[C@H](CC(=O)O)NC(=O)[C@H](CO)NC(=O)[C@@H](NC(=O)[C@H](Cc1ccccc1)NC(=O)[C@@H](NC(=O)CNC(=O)[C@H](CCC(=O)O)NC(=O)C(C)(C)NC(=O)[C@@H](N)Cc1c[nH]cn1)[C@@H](C)O)[C@@H](C)O)C(C)C)C(C)C)C(=O)N[C@@H](C)C(=O)N[C@@H](Cc1c[nH]c2ccccc12)C(=O)N[C@@H](CC(C)C)C(=O)N[C@H](C(=O)N[C@@H](CCC(=O)O)C(=O)N[C@@H](CCCCN)C(=O)N[C@@H](Cc1ccccc1)C(=O)N[C@@H](CCCCN)C(=O)N[C@@H](CCC(=O)O)C(=O)N[C@@H](Cc1ccccc1)C(=O)N[C@@H](Cc1ccccc1)C(N)=O)C(C)C` [Compound 93, [Aib8,Glu23,Val25,Glu34,Lys35,Phe36,Lys37]-GLP-1-(7-37)-peptidyl-Glu-Phe-Phe amide] (H-H[Aib]EGTFTSDVSSYLEGEAVKEFIAWLVEKFKEFF-NH2) as the compound, how does the “4 h Cholesterol Efflux Emax” value read?
Answer: Its value is 113%.

Question: With `CC[C@H](C)[C@H](NC(=O)[C@H](Cc1ccccc1)NC(=O)[C@H](CCC(=O)O)NC(=O)[C@H](CCCCN)NC(=O)[C@@H](NC(=O)[C@H](CCCCN)NC(=O)[C@H](CCC(=O)O)NC(=O)CNC(=O)[C@H](CCC(=O)O)NC(=O)[C@H](CC(C)C)NC(=O)[C@H](Cc1ccc(O)cc1)NC(=O)[C@H](CO)NC(=O)[C@H](CO)NC(=O)[C@@H](NC(=O)[C@H](CC(=O)O)NC(=O)[C@H](CO)NC(=O)[C@@H](NC(=O)[C@H](Cc1ccccc1)NC(=O)[C@@H](NC(=O)CNC(=O)[C@H](CCC(=O)O)NC(=O)C(C)(C)NC(=O)[C@@H](N)Cc1c[nH]cn1)[C@@H](C)O)[C@@H](C)O)C(C)C)C(C)C)C(=O)N[C@@H](CCC(=O)O)C(=O)N[C@@H](Cc1c[nH]cn1)C(=O)N[C@@H](CC(C)C)C(=O)N[C@H](C(=O)N[C@@H](CCC(=O)O)C(=O)N[C@@H](CCCCN)C(=O)N[C@@H](Cc1ccccc1)C(=O)N[C@@H](CCCCN)C(=O)N[C@@H](CCC(=O)O)C(=O)N[C@@H](Cc1ccccc1)C(=O)N[C@@H](Cc1ccccc1)C(N)=O)C(C)C` [Compound 96, [Aib8,Glu23,Lys24,Val25,Glu30,His31,Glu34,Lys35,Phe36,Lys37]-GLP-1-(7-37)-peptidyl-Glu-Phe-Phe amide] (H-H[Aib]EGTFTSDVSSYLEGEKVKEFIEHLVEKFKEFF-NH2) as the compound, how does the “4 h Cholesterol Efflux Emax” value read?
Answer: The value was 123%.

Question: With `CC[C@H](C)[C@H](NC(=O)[C@H](Cc1ccccc1)NC(=O)[C@H](CCC(=O)O)NC(=O)[C@H](CCCCN)NC(=O)[C@@H](NC(=O)[C@H](CCCCN)NC(=O)[C@H](CCC(=O)O)NC(=O)CNC(=O)[C@H](CCC(=O)O)NC(=O)[C@H](CC(C)C)NC(=O)[C@H](Cc1ccc(O)cc1)NC(=O)[C@H](CO)NC(=O)[C@H](CO)NC(=O)[C@@H](NC(=O)[C@H](CC(=O)O)NC(=O)[C@H](CO)NC(=O)[C@@H](NC(=O)[C@H](Cc1ccccc1)NC(=O)[C@@H](NC(=O)CNC(=O)[C@H](CCC(=O)O)NC(=O)C(C)(C)NC(=O)[C@@H](N)Cc1c[nH]cn1)[C@@H](C)O)[C@@H](C)O)C(C)C)C(C)C)C(=O)N[C@@H](C)C(=O)N[C@@H](Cc1c[nH]c2ccccc12)C(=O)N[C@@H](CC(C)C)C(=O)N[C@H](C(=O)N[C@@H](CCC(=O)O)C(=O)N[C@@H](CCCCN)C(=O)NC(C)(C)C(=O)N[C@@H](CCCCN)C(=O)N[C@@H](CCC(=O)O)C(=O)N[C@@H](Cc1ccccc1)C(=O)N[C@@H](CC(C)C)C(N)=O)C(C)C` [Compound 60, [Aib8,Glu23,Lys24,Val25,Glu34,Lys35,Aib36,Lys37]-GLP-1-(7-37)-peptidyl-Glu-Phe-Leu amide] (H-H[Aib]EGTFTSDVSSYLEGEKVKEFIAWLVEK[Aib]KEFL-NH2) as the compound, how does the “4 h Cholesterol Efflux Emax” value read?
Answer: The value was 111%.

Question: How did the “4 h Cholesterol Efflux Emax” value turn out when `CC[C@H](C)[C@H](NC(=O)[C@H](Cc1ccccc1)NC(=O)[C@H](CCC(=O)O)NC(=O)[C@H](CCCCN)NC(=O)[C@H](C)NC(=O)[C@H](C)NC(=O)[C@H](CCC(N)=O)NC(=O)CNC(=O)[C@H](CCC(=O)O)NC(=O)[C@H](CC(C)C)NC(=O)[C@H](Cc1ccc(O)cc1)NC(=O)[C@H](CO)NC(=O)[C@H](CO)NC(=O)[C@@H](NC(=O)[C@H](CC(=O)O)NC(=O)[C@H](CO)NC(=O)[C@@H](NC(=O)[C@H](Cc1ccccc1)NC(=O)[C@@H](NC(=O)CNC(=O)[C@H](CCC(=O)O)NC(=O)C(C)(C)NC(=O)[C@@H](N)Cc1c[nH]cn1)[C@@H](C)O)[C@@H](C)O)C(C)C)C(=O)N[C@@H](C)C(=O)N[C@@H](Cc1c[nH]c2ccccc12)C(=O)N[C@@H](CC(C)C)C(=O)N[C@H](C(=O)N[C@@H](CCCCN)C(=O)N[C@@H](CCCCN)C(=O)NC(C)(C)C(=O)N[C@@H](CCCCN)C(=O)N[C@@H](CCC(=O)O)C(=O)N[C@@H](Cc1ccccc1)C(=O)N[C@@H](CC(C)C)C(N)=O)C(C)C` [Compound 47, [Aib8,Lys35,Aib36,Lys37]-GLP-1-(7-37)-peptidyl-Glu-Phe-Leu amide] was run?
Answer: The value was 55%.

Question: “H-HAEGTFTSDVSSYLEGEAVKEFIAWLVEKVKEHLEK-OH [Compound 125, [Glu23,Val25,Glu34,Lys35,Val36,Lys37]-GLP-1-(7-37)-peptidyl-Glu-His-Leu-Glu-Lys]” was tested. Which “4 h Cholesterol Efflux Emax” value did it give?
Answer: The value was 111%.

Question: With `CC[C@H](C)[C@H](NC(=O)[C@H](Cc1ccccc1)NC(=O)[C@H](CC(C)C)NC(=O)[C@H](CCCNC(=N)N)NC(=O)[C@@H](NC(=O)[C@H](C)NC(=O)[C@H](CCC(=O)O)NC(=O)CNC(=O)[C@H](CCC(=O)O)NC(=O)[C@H](CCSC)NC(=O)[C@H](CCC(N)=O)NC(=O)[C@H](CCCCN)NC(=O)[C@H](CO)NC(=O)[C@H](CC(C)C)NC(=O)[C@H](CC(=O)O)NC(=O)[C@H](CO)NC(=O)[C@@H](NC(=O)[C@H](Cc1ccccc1)NC(=O)[C@@H](NC(=O)CNC(=O)[C@H](CCC(=O)O)NC(=O)C(C)(C)NC(=O)[C@@H](N)Cc1c[nH]cn1)[C@@H](C)O)[C@@H](C)O)C(C)C)C(=O)N[C@@H](CCC(=O)O)C(=O)N[C@@H](Cc1c[nH]c2ccccc12)C(=O)N[C@@H](CC(C)C)C(=O)N[C@@H](CCCCN)C(=O)N[C@@H](CC(N)=O)C(=O)N[C@@H](CCCCN)C(=O)NC(C)(C)C(=O)N[C@@H](CC(C)C)C(=O)N[C@@H](CCC(=O)O)C(=O)N[C@@H](Cc1ccccc1)C(=O)N[C@@H](CC(C)C)C(=O)N[C@@H](CCC(=O)O)C(=O)N[C@@H](CC(C)C)C(=O)N[C@@H](CC(C)C)C(N)=O` [Compound 12, [Aib2,Gly16,Lys29,Aib30,Leu31,Glu32,Phe33,Leu34,Glu35,Leu36,Leu371-Exendin-4-(1-37)-peptide amide] (H-H[Aib]EGTFTSDLSKQMEGEAVRLFIEWLKNK[Aib]LEFLELL-NH2; N-terminus assumed) as the compound, how does the “4 h Cholesterol Efflux Emax” value read?
Answer: Its value is 86%.

Question: Which “4 h Cholesterol Efflux Emax” value does the source give for `CC[C@H](C)[C@H](NC(=O)[C@H](Cc1ccccc1)NC(=O)[C@H](CCC(=O)O)NC(=O)[C@H](CCCNC(=N)N)NC(=O)[C@@H](NC(=O)[C@H](C)NC(=O)[C@H](CCC(=O)O)NC(=O)[C@H](CCC(=O)O)NC(=O)[C@H](CCC(=O)O)NC(=O)[C@H](CCSC)NC(=O)[C@H](CCC(N)=O)NC(=O)[C@H](CCCCN)NC(=O)[C@H](CO)NC(=O)[C@H](CC(C)C)NC(=O)[C@H](CC(=O)O)NC(=O)[C@H](CO)NC(=O)[C@@H](NC(=O)[C@H](Cc1ccccc1)NC(=O)[C@@H](NC(=O)CNC(=O)[C@H](CCC(=O)O)NC(=O)C(C)(C)NC(=O)[C@@H](N)Cc1c[nH]cn1)[C@@H](C)O)[C@@H](C)O)C(C)C)C(=O)N[C@@H](CCC(=O)O)C(=O)N[C@@H](Cc1c[nH]c2ccccc12)C(=O)N[C@@H](CC(C)C)C(=O)N[C@@H](CCCCN)C(=O)N[C@@H](CC(N)=O)C(=O)N[C@@H](CCCCN)C(=O)NC(C)(C)C(=O)N[C@@H](CC(C)C)C(=O)N[C@@H](CO)C(=O)N[C@@H](Cc1ccccc1)C(=O)N[C@@H](CC(C)C)C(=O)N[C@@H](CCC(=O)O)C(=O)N[C@@H](CC(C)C)C(=O)N[C@@H](CC(C)C)C(N)=O` [Compound 36, [Aib2,Glu21,Lys29,Aib30,Leu31,Phe33,Leu34,Glu35,Leu36,Leu371-Exendin-4-(1-37)-peptide amide] (H-H[Aib]EGTFTSDLSKQMEEEAVREFIEWLKNK[Aib]LSFLELL-NH2; N-terminus assumed) here?
Answer: The value was 95%.

Question: Which results are given for `CC[C@H](C)[C@H](NC(=O)[C@H](Cc1ccccc1)NC(=O)[C@H](CCC(=O)O)NC(=O)[C@H](CCCCN)NC(=O)[C@@H](NC(=O)[C@H](C)NC(=O)[C@H](CCC(=O)O)NC(=O)CNC(=O)[C@H](CCC(=O)O)NC(=O)[C@H](CC(C)C)NC(=O)[C@H](Cc1ccc(O)cc1)NC(=O)[C@H](CO)NC(=O)[C@H](CO)NC(=O)[C@@H](NC(=O)[C@H](CC(=O)O)NC(=O)[C@H](CO)NC(=O)[C@@H](NC(=O)[C@H](Cc1ccccc1)NC(=O)[C@@H](NC(=O)CNC(=O)[C@H](CCC(=O)O)NC(=O)C(C)(C)NC(=O)[C@@H](N)Cc1c[nH]cn1)[C@@H](C)O)[C@@H](C)O)C(C)C)C(C)C)C(=O)N[C@@H](C)C(=O)N[C@@H](Cc1c[nH]c2ccccc12)C(=O)N[C@@H](CC(C)C)C(=O)N[C@H](C(=O)N[C@@H](CCC(=O)O)C(=O)N[C@@H](CCCCN)C(=O)NC(C)(C)C(=O)N[C@@H](CCCCN)C(=O)N[C@@H](CCC(=O)O)C(=O)N[C@@H](Cc1ccccc1)C(=O)N[C@@H](CC(C)C)C(=O)N[C@@H](CCC(=O)O)C(=O)N[C@@H](CCCCN)C(=O)N[C@H](C(=O)O)C(C)C)C(C)C` [Compound 98, [Aib8,Glu23,Val25,Glu34,Lys35,Aib36,Lys37]-GLP-1-(7-37)-peptidyl-Glu-Phe-Leu-Glu-Lys-Val]?
Answer: 4 h Cholesterol Efflux Emax: 132%; EC50: 430 nM

Question: For “HAQGTFTSDYSKYLDSKAAREFVQWLLEKVKEFL-NH2 [Compound 68]”, which EC50 is on record?
Answer: The EC50 was 270 nM.

Question: How did the “4 h Cholesterol Efflux Emax” value turn out when “H-HGEGTFTSDVSSYLEGEAVKEFIAWLVEKVKEFLG-OH [Compound 92, [Gly8,Glu23,Val25,Glu34,Lys35,Val36,Lys37]-GLP-1-(7-37)-peptidyl-Glu-Phe-Leu-Gly]” was run?
Answer: Its value is 129%.
